Source: US8575156B2, “Cyclic inhibitors of 11β-hydroxysteroid dehydrogenase 1” (Vitae Pharmaceuticals, Inc., priority 2007, dated 2013)
Where two headings read alike, the source gives them in different places.

How the values were obtained:
11β-HSD1 [1] = biological target: T1, 11β-HSD1 (Homo sapiens, UniProt P28845); settings: for IC50: read-out: IC50 Range
11β-HSD1 [2] = biological target: T1, 11β-HSD1; assay: biochemical; settings: for IC50: IC50 Range, Biological Test Example 1, microsomes from CHO cells overexpressing human 11β-HSD1
[3] = Biological Test Example 1, 100 nM compound, 0.1 µM
[4] = Biological Test Example 1, microsomes from CHO cells overexpressing human 11β-HSD1
[5] = Biological Test Example 1, 100 nM, 0.1 µM
[6] = Biological Test Example 1, 111.1 nM compound, 0.1111 µM

T1 sequence (P28845 whole entry): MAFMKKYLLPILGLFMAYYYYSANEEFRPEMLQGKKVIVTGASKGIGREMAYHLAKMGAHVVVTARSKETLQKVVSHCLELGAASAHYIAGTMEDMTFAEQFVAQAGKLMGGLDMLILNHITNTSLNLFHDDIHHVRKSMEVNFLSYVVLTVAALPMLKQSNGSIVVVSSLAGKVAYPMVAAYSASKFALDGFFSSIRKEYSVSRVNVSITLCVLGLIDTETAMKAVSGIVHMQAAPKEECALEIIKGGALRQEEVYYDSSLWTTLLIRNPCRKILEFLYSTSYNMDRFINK

C[C@@H](c1ccccc1)N1CCC(CO)(c2ccc(F)cc2)OC1=O (single isomer, unassigned) [EXAMPLE 114 Isomer 1]
Average % inhibition at 100 nM (11β-HSD1 [1]; [3]): 17.4% | IC50 (11β-HSD1 [2]): > 1000 nM

CC[C@@H](c1ccc(Br)cc1)N1CC[C@](CC(O)CO)(c2ccccc2)OC1=O (single isomer, unassigned) [EXAMPLE 239 Isomer 2]
Average % inhibition at 100 nM (11β-HSD1 [1]; [3]): 89.5% | IC50 (11β-HSD1 [1]; [4]): < 100 nM

3-((S)-1-(2′,4′-difluorobiphenyl-4-yl)ethyl)-6-(2-hydroxyethyl)-6-isopropyl-1,3-oxazinan-2-one [EXAMPLE 207 Isomer 2]
Average % inhibition at 100 nM (11β-HSD1 [1]; 0.1 µM): 89.3% | IC50 (11β-HSD1 [1]): < 100 nM

O=C1OC(CCCO)(c2ccccc2)CCN1C1CC1c1ccccc1 (single isomer, unassigned) [EXAMPLE 188 Isomer 1, 6-(3-hydroxypropyl)-6-phenyl-3-(2-phenylcyclopropyl)-1,3-oxazinan-2-one]
Average % inhibition at 100 nM (11β-HSD1 [1]; [3]): 77.0% | IC50 (11β-HSD1 [2]): < 100 nM

C[C@@H](c1ccc(-c2ccc(F)cc2F)cc1)N1CCC(CCO)(C(C)(C)C)OC1=O (single isomer, unassigned) [EXAMPLE 336 Isomer 2]
Average % inhibition at 100 nM (11β-HSD1 [1]; [5]): 94.6% | IC50 (11β-HSD1 [1]; [4]): < 100 nM

CC(O)C[C@]1(c2ccc(F)cc2)CCN([C@@H](C)c2ccc(-c3ccc(F)cc3F)cc2)C(=O)O1 (single isomer, unassigned) [EXAMPLE 137 Isomer 2]
IC50 (11β-HSD1 [1]; [4]): < 100 nM

3-((S)-1-(2′,4′-difluorobiphenyl-4-yl)ethyl)-6-(2-hydroxyethyl)-6-isopropyl-1,3-oxazinan-2-one [EXAMPLE 207 Isomer 1]
Average % inhibition at 100 nM (11β-HSD1 [1]; 0.1 µM): 89.9% | IC50 (11β-HSD1 [1]): < 100 nM

C[C@H](c1ccccc1)N1CCC(C)(c2ccccc2)OC1=O (single isomer, unassigned) [EXAMPLE 83 Isomer 2]
Average % inhibition at 111.1 nM (11β-HSD1 [1]; [6]): 45.8% | IC50 (11β-HSD1 [1]; [4]): 100 to 1000 nM

C=CCC1(c2ccc(F)cc2)CCN([C@@H](C)c2ccc(C)cc2)C(=O)O1 (single isomer, unassigned) [EXAMPLE 189 Isomer 2]
Average % inhibition at 100 nM (11β-HSD1 [1]; [3]): 90.1% | IC50 (11β-HSD1 [1]; [4]): < 100 nM

(S)-6-(3-hydroxypropyl)-3-((S)-1-(4-methoxyphenyl)ethyl)-6-phenyl-1,3-oxazinan-2-one [EXAMPLE 282 Isomer 2]
Average % inhibition at 100 nM (11β-HSD1 [1]): 77.8% | IC50 (11β-HSD1 [1]): < 100 nM

CC(C)C1(CCCO)CCN([C@@H](C)c2ccc(-c3ccc(F)cc3F)cc2)C(=O)O1 (single isomer, unassigned) [EXAMPLE 212 Isomer 2]
Average % inhibition at 100 nM (11β-HSD1 [1]; [3]): 82.6% | IC50 (11β-HSD1 [1]; [4]): < 100 nM

COc1ccc([C@H](C)N2CC[C@](CC(O)CO)(c3ccc(F)cc3)OC2=O)cc1 (single isomer, unassigned) [EXAMPLE 206 Isomer 2]
Average % inhibition at 100 nM (11β-HSD1 [1]; [3]): 85.9% | IC50 (11β-HSD1 [1]; [4]): < 100 nM

CC(O)C[C@]1(c2ccc(F)cc2)CCN([C@@H](C)c2ccc(Br)cc2)C(=O)O1 (single isomer, unassigned) [EXAMPLE 371 Isomer 2]
Average % inhibition at 100 nM (11β-HSD1 [1]; [5]): 97.4% | IC50 (11β-HSD1 [1]; [4]): < 100 nM

C[C@@H](c1ccc(-c2ccc(F)cc2F)cc1)N1CCC(CCCO)(c2cccs2)OC1=O (single isomer, unassigned) [EXAMPLE 171 Isomer 2]
Average % inhibition at 100 nM (11β-HSD1 [1]; [3]): 68.6% | IC50 (11β-HSD1 [1]; [4]): < 100 nM

C[C@@H](C1CCCCC1)N1CC[C@](CC(O)CO)(c2ccc(F)cc2)OC1=O (single isomer, unassigned) [EXAMPLE 197 Isomer 2]
Average % inhibition at 100 nM (11β-HSD1 [1]; [3]): 82.1% | IC50 (11β-HSD1 [1]; [4]): < 100 nM

C[C@@H](c1ccc(Br)cc1)N1CCC(CCCO)(c2ccc(F)cc2)OC1=O (single isomer, unassigned) [EXAMPLE 227 Isomer 2]
IC50 (11β-HSD1 [1]; [4]): < 100 nM

C[C@@H](c1ccc(-c2ccc(F)cc2F)cc1)N1CCC(CCO)(c2cccs2)OC1=O (single isomer, unassigned) [EXAMPLE 233 Isomer 2]
Average % inhibition at 100 nM (11β-HSD1 [1]; [3]): 64.1% | IC50 (11β-HSD1 [1]; [4]): < 100 nM

CC(C[C@]1(c2ccc(F)cc2)CCN([C@@H](C)c2ccc(Br)cc2)C(=O)O1)C(N)=O (single isomer, unassigned) [EXAMPLE 523 Isomer 2]
Average % inhibition at 100 nM (11β-HSD1 [1]; [5]): 85.4% | IC50 (11β-HSD1 [1]; [4]): < 100 nM

C[C@@H](c1ccc(Br)cc1)N1CCC(CCCO)(C(C)(C)C)OC1=O (single isomer, unassigned) [EXAMPLE 335 Isomer 2]
Average % inhibition at 100 nM (11β-HSD1 [1]; [5]): 96.7% | IC50 (11β-HSD1 [1]; [4]): < 100 nM

CC(O)CC[C@]1(c2ccc(F)cc2)CCN([C@@H](C)c2ccc(F)cc2)C(=O)O1 (single isomer, unassigned) [EXAMPLE 411 Isomer 2]
Average % inhibition at 100 nM (11β-HSD1 [1]; [5]): 93.1% | IC50 (11β-HSD1 [1]; [4]): < 100 nM

(R)-3-((S)-1-(2′,4′-difluorobiphenyl-4-yl)propyl)-6-(4-fluorophenyl)-6-(2-hydroxyethyl)-1,3-oxazinan-2-one [EXAMPLE 175 Isomer 2]
Average % inhibition at 111.1 nM (11β-HSD1 [1]): 25.8% | IC50 (11β-HSD1 [1]): 100 to 1000 nM

CC(C)C1(CCCO)CCN([C@@H](C)c2ccc(Br)cc2)C(=O)O1 (single isomer, unassigned) [EXAMPLE 200 Isomer 2]
IC50 (11β-HSD1 [1]; [4]): < 100 nM

C[C@@H](c1ccccc1)N1CCC(C)(c2ccccc2)OC1=O (single isomer, unassigned) [EXAMPLE 82 Isomer 2]
Average % inhibition at 111.1 nM (11β-HSD1 [1]; [6]): 89.2% | IC50 (11β-HSD1 [1]; [4]): < 100 nM

C[C@@H](c1ccc(Br)cc1)N1CCC(CCO)(c2ccc(F)cc2F)OC1=O (single isomer, unassigned) [EXAMPLE 365 Isomer 2]
Average % inhibition at 100 nM (11β-HSD1 [1]; [5]): 61.1% | IC50 (11β-HSD1 [1]; [4]): < 100 nM

(S)-3-((S)-1-(2′,4′-difluorobiphenyl-4-yl)propyl)-6-(4-fluorophenyl)-6-(2-hydroxyethyl)-1,3-oxazinan-2-one [EXAMPLE 175 Isomer 1]
Average % inhibition at 111.1 nM (11β-HSD1 [1]): 93.7% | IC50 (11β-HSD1 [1]): < 100 nM

C=CCC1(c2ccc(F)cc2)CCN([C@@H](C)c2ccc(OC)cc2)C(=O)O1 (single isomer, unassigned) [EXAMPLE 193 Isomer 2]
IC50 (11β-HSD1 [1]; [4]): < 100 nM

C[C@@H](c1ccc(-c2ccc(F)cc2)cc1)N1CC[C@](CC(O)CN(C)S(C)(=O)=O)(c2ccc(F)cc2)OC1=O (single isomer, unassigned) [EXAMPLE 278 Isomer 2]
Average % inhibition at 100 nM (11β-HSD1 [1]; [3]): 65.5% | IC50 (11β-HSD1 [1]; [4]): < 100 nM

(R)-6-(3-hydroxypropyl)-3-((S)-1-(4-methoxyphenyl)ethyl)-6-phenyl-1,3-oxazinan-2-one [EXAMPLE 282 Isomer 1]
Average % inhibition at 100 nM (11β-HSD1 [1]): 94.0% | IC50 (11β-HSD1 [1]): < 100 nM

C=CCC1(c2ccc(F)cc2)CCN([C@@H](C)c2ccc(Cl)cc2)C(=O)O1 (single isomer, unassigned) [EXAMPLE 196 Isomer 2]
Average % inhibition at 100 nM (11β-HSD1 [1]; [3]): 98.9% | IC50 (11β-HSD1 [1]; [4]): < 100 nM

CC(O)C[C@]1(c2ccc(F)cc2)CCN([C@@H](C)c2ccc(Cl)cc2)C(=O)O1 (single isomer, unassigned) [EXAMPLE 203 Isomer 2]
Average % inhibition at 100 nM (11β-HSD1 [1]; [3]): 93.8% | IC50 (11β-HSD1 [1]; [4]): < 100 nM

C=CC1(c2ccc(F)cc2)CCN([C@@H](C)c2ccccc2)C(=O)O1 (single isomer, unassigned) [EXAMPLE 113 Isomer 2]
Average % inhibition at 111.1 nM (11β-HSD1 [1]; [6]): 82.6% | IC50 (11β-HSD1 [1]; [4]): < 100 nM

CC(C)C1(CCCO)CCN([C@@H](C)c2ccc(Cl)cc2)C(=O)O1 (single isomer, unassigned) [EXAMPLE 187 Isomer 2]
Average % inhibition at 100 nM (11β-HSD1 [1]; 0.1 µM): 46.4% | IC50 (11β-HSD1 [1]; [4]): < 100 nM

C=CCCC1(c2ccc(F)cc2)CCN([C@@H](C)c2ccc(OC(F)F)cc2)C(=O)O1 (single isomer, unassigned) [EXAMPLE 323 Isomer 2]
Average % inhibition at 100 nM (11β-HSD1 [1]; 0.1 µM): 100.9% | IC50 (11β-HSD1 [1]; [4]): < 100 nM

CC[C@@H](c1ccc(Br)cc1)N1CC[C@](CC(O)CO)(c2ccc(F)cc2)OC1=O (single isomer, unassigned) [EXAMPLE 255 Isomer 2]
Average % inhibition at 100 nM (11β-HSD1 [1]; [3]): 89.3% | IC50 (11β-HSD1 [1]; [4]): < 100 nM

CC(O)C[C@]1(c2ccccc2)CCN([C@@H](C)c2ccc(-c3ccc(F)cc3)cc2)C(=O)O1 (single isomer, unassigned) [EXAMPLE 224 Isomer 2]
Average % inhibition at 100 nM (11β-HSD1 [1]; [3]): 95.6% | IC50 (11β-HSD1 [1]; [4]): < 100 nM

CC(O)CC[C@]1(c2ccc(F)cc2)CCN([C@@H](C)c2ccc(Cl)cc2)C(=O)O1 (single isomer, unassigned) [EXAMPLE 383 Isomer 2]
Average % inhibition at 100 nM (11β-HSD1 [1]; [5]): 95.3% | IC50 (11β-HSD1 [1]; [4]): < 100 nM

CC(O)C[C@]1(c2ccc(F)cc2)CCN([C@@H](C)c2ccc(C(F)(F)F)cc2)C(=O)O1 (single isomer, unassigned) [EXAMPLE 388 Isomer 2]
Average % inhibition at 100 nM (11β-HSD1 [1]; [5]): 94.7% | IC50 (11β-HSD1 [1]; [4]): < 100 nM

CC(CO)C[C@]1(c2ccc(F)cc2)CCN([C@@H](C)c2ccc(Br)cc2)C(=O)O1 (single isomer, unassigned) [EXAMPLE 577 Isomer 2]
Average % inhibition at 100 nM (11β-HSD1 [1]; [5]): 94.7% | IC50 (11β-HSD1 [1]; [4]): < 100 nM

CC(O)C[C@@]1(c2cccs2)CCN([C@@H](C)c2ccc(-c3ccc(F)cc3)cc2)C(=O)O1 (single isomer, unassigned) [EXAMPLE 167 Isomer 2]
Average % inhibition at 111.1 nM (11β-HSD1 [1]; [6]): 77.2% | IC50 (11β-HSD1 [1]; [4]): < 100 nM

C[C@@H](c1ccc(-c2ccc(F)cc2)cc1)N1CC[C@](CC(O)CO)(c2ccccc2)OC1=O (single isomer, unassigned) [EXAMPLE 168 Isomer 2]
Average % inhibition at 100 nM (11β-HSD1 [1]; [3]): 95.6% | IC50 (11β-HSD1 [1]; [4]): < 100 nM

C[C@@H](c1ccc(-c2ccc(F)cc2)cc1)N1CC[C@](CC(O)CNS(C)(=O)=O)(c2ccc(F)cc2)OC1=O (single isomer, unassigned) [EXAMPLE 277 Isomer 2]
Average % inhibition at 100 nM (11β-HSD1 [1]; 0.1 µM): 65.6% | IC50 (11β-HSD1 [1]): < 100 nM

C[C@@H](c1ccc(-c2ccc(F)cc2F)cc1)N1CC[C@](CC(O)CO)(c2ccccc2)OC1=O (single isomer, unassigned) [EXAMPLE 173 Isomer 2]
Average % inhibition at 100 nM (11β-HSD1 [1]; [3]): 94.5% | IC50 (11β-HSD1 [1]; [4]): < 100 nM

CC1(c2ccccn2)CCN(c2cccc(-c3ccc(F)cc3F)c2)C(=O)O1 (stereo not shown) [EXAMPLE 80, 3-(2′,4′-difluorobiphenyl-3-yl)-6-methyl-6-(pyridin-2-yl)-1,3-oxazinan-2-one]
IC50 (11β-HSD1 [2]): < 100 nM | inhibition at 0.1111 µM (11β-HSD1 [2]; read-out: Average % inhibition at 111.1 nM): 77.8%
